Tested on: MV-4-11 cells
Experiment: Gene expression microarray analysis (Affymetrix PrimeView) and GSEA
Format: cell-based, human
Parameters: RFU PODN (11730768_x_at) / Fold change /veh PODN (11730768_x_at) / RFU LINC00158 (11744669_a_at) / Fold change /veh LINC00158 (11744669_a_at) / RFU DUSP10 (11751237_a_at) / Fold change /veh DUSP10 (11751237_a_at) / RFU ID3 (11757404_x_at) / Fold change /veh ID3 (11757404_x_at) / RFU PLEKHG5 (11737974_s_at) / Fold change /veh PLEKHG5 (11737974_s_at) / RFU LRRC4B (11730491_at) / Fold change /veh LRRC4B (11730491_at) / RFU GIMAP4 (11747438_a_at) / Fold change /veh GIMAP4 (11747438_a_at) / RFU KRT8 (11758183_x_at) / Fold change /veh KRT8 (11758183_x_at) / RFU CNN1 (11734310_a_at) / Fold change /veh CNN1 (11734310_a_at) / RFU VPS37D (11726825_at) / Fold change /veh VPS37D (11726825_at) / RFU C10orf10 (11716522_x_at) / Fold change /veh C10orf10 (11716522_x_at) / RFU KIR2DL2 /// KIR2DL4 /// KIR2DL5A /// KIR2DL5B /// KIR2DS1 /// KIR2DS2 /// KIR2DS3 /// KIR2DS4 /// KIR3DL3 /// KIR3DL3 /// KIR3DS1 (11738374_at) / Fold change /veh KIR2DL2 /// KIR2DL4 /// KIR2DL5A /// KIR2DL5B /// KIR2DS1 /// KIR2DS2 /// KIR2DS3 /// KIR2DS4 /// KIR3DL3 /// KIR3DL3 /// KIR3DS1 (11738374_at) / RFU C1QL1 (11718748_at) / Fold change /veh C1QL1 (11718748_at) / RFU TMPRSS4 (11747572_a_at) / Fold change /veh TMPRSS4 (11747572_a_at) / RFU HAMP (11756126_x_at) / Fold change /veh HAMP (11756126_x_at) / RFU RNFT2 (11725882_a_at) / Fold change /veh RNFT2 (11725882_a_at) / RFU NR4A2 (11747474_a_at) / Fold change /veh NR4A2 (11747474_a_at) / RFU ABCC12 (11746883_a_at) / Fold change /veh ABCC12 (11746883_a_at) / RFU TMEM136 (11760407_x_at) / Fold change /veh TMEM136 (11760407_x_at) / RFU CLDN22 /// WWC2 (11732394_at) / Fold change /veh CLDN22 /// WWC2 (11732394_at) / RFU HLA-DPB1 (11760878_x_at) / Fold change /veh HLA-DPB1 (11760878_x_at) / RFU SPINT1 (11716480_a_at) / Fold change /veh SPINT1 (11716480_a_at) / RFU GAP43 (11754022_s_at) / Fold change /veh GAP43 (11754022_s_at) / RFU A4GNT (11735810_at) / Fold change /veh A4GNT (11735810_at) / RFU PRB3 (11715151_x_at) / Fold change /veh PRB3 (11715151_x_at) / RFU TUBB4B (11761932_at) / Fold change /veh TUBB4B (11761932_at) / RFU CAPN14 (11732068_a_at) / Fold change /veh CAPN14 (11732068_a_at) / RFU TMCC2 (11721928_a_at) / Fold change /veh TMCC2 (11721928_a_at) / RFU IRGQ (11745062_a_at) / Fold change /veh IRGQ (11745062_a_at) / RFU FAM174B (11720279_a_at) / Fold change /veh FAM174B (11720279_a_at) / RFU TMPRSS4 (11748680_a_at) / Fold change /veh TMPRSS4 (11748680_a_at) / RFU FAM212B (11763350_a_at) / Fold change /veh FAM212B (11763350_a_at) / RFU PLEKHG5 (11743358_a_at) / Fold change /veh PLEKHG5 (11743358_a_at) / RFU ZSCAN30 (11745921_a_at) / Fold change /veh ZSCAN30 (11745921_a_at) / RFU CMKLR1 (11741424_a_at) / Fold change /veh CMKLR1 (11741424_a_at) / RFU LOC101060620 /// MAPK8IP1 (11723275_at) / Fold change /veh LOC101060620 /// MAPK8IP1 (11723275_at) / RFU SPTSSB (11747773_x_at) / Fold change /veh SPTSSB (11747773_x_at) / RFU PRSS12 (11739890_at) / Fold change /veh PRSS12 (11739890_at) / RFU BIN1 (11741810_x_at) / Fold change /veh BIN1 (11741810_x_at) / RFU WNT11 (11732464_a_at) / Fold change /veh WNT11 (11732464_a_at) / RFU C10orf10 (11716521_a_at) / Fold change /veh C10orf10 (11716521_a_at) / RFU C5orf56 (11738089_at) / Fold change /veh C5orf56 (11738089_at) / RFU CYB561 (11721691_x_at) / Fold change /veh CYB561 (11721691_x_at) / RFU ANKRD19P (11752326_a_at) / Fold change /veh ANKRD19P (11752326_a_at) / RFU OR2T12 /// OR2T33 /// OR2T8 (11738714_s_at) / Fold change /veh OR2T12 /// OR2T33 /// OR2T8 (11738714_s_at) / RFU VCAN (11748164_a_at) / Fold change /veh VCAN (11748164_a_at) / RFU JSRP1 (11732532_at) / Fold change /veh JSRP1 (11732532_at) / RFU KRTAP10-11 (11738290_x_at) / Fold change /veh KRTAP10-11 (11738290_x_at) / RFU MYO3A (11730013_a_at) / Fold change /veh MYO3A (11730013_a_at) / RFU EBF3 (11725865_a_at) / Fold change /veh EBF3 (11725865_a_at) / RFU CAMK2N1 (11719241_x_at) / Fold change /veh CAMK2N1 (11719241_x_at) / RFU C5orf56 (11738088_a_at) / Fold change /veh C5orf56 (11738088_a_at) / RFU OLFML3 (11715873_a_at) / Fold change /veh OLFML3 (11715873_a_at) / RFU LOC100653217 /// NTM (11731650_a_at) / Fold change /veh LOC100653217 /// NTM (11731650_a_at) / RFU MAPK11 (11762145_a_at) / Fold change /veh MAPK11 (11762145_a_at) / RFU FIZ1 (11724087_x_at) / Fold change /veh FIZ1 (11724087_x_at) / RFU OASL (11726364_x_at) / Fold change /veh OASL (11726364_x_at) / RFU SOX15 (11748057_x_at) / Fold change /veh SOX15 (11748057_x_at) / RFU CD79A (11719716_a_at) / Fold change /veh CD79A (11719716_a_at) / RFU HIST1H1D (11736915_at) / Fold change /veh HIST1H1D (11736915_at) / RFU CASKIN2 (11723855_a_at) / Fold change /veh CASKIN2 (11723855_a_at) / RFU LOC730098 (11760151_x_at) / Fold change /veh LOC730098 (11760151_x_at) / RFU OR4N2 (11742367_at) / Fold change /veh OR4N2 (11742367_at) / RFU PRRT2 (11749266_a_at) / Fold change /veh PRRT2 (11749266_a_at) / RFU SNX32 (11753110_a_at) / Fold change /veh SNX32 (11753110_a_at) / RFU CDHR5 (11726645_a_at) / Fold change /veh CDHR5 (11726645_a_at) / RFU RCAN1 (11760418_a_at) / Fold change /veh RCAN1 (11760418_a_at) / RFU FAM167A (11723789_a_at) / Fold change /veh FAM167A (11723789_a_at) / RFU FAM26E (11764081_at) / Fold change /veh FAM26E (11764081_at) / RFU ISYNA1 (11749810_s_at) / Fold change /veh ISYNA1 (11749810_s_at) / RFU ACY1 (11761880_at) / Fold change /veh ACY1 (11761880_at) / RFU 11764098_at / Fold change /veh 11764098_at / RFU SAMD14 (11745864_x_at) / Fold change /veh SAMD14 (11745864_x_at) / RFU NPB (11741838_a_at) / Fold change /veh NPB (11741838_a_at) / RFU TMPRSS6 (11731388_a_at) / Fold change /veh TMPRSS6 (11731388_a_at) / RFU KRTAP10-2 (11738614_at) / Fold change /veh KRTAP10-2 (11738614_at) / RFU ARHGAP8 /// PRR5-ARHGAP8 (11727945_x_at) / Fold change /veh ARHGAP8 /// PRR5-ARHGAP8 (11727945_x_at) / RFU KRTAP5-7 /// NADSYN1 (11734609_at) / Fold change /veh KRTAP5-7 /// NADSYN1 (11734609_at) / RFU RASL12 (11751679_a_at) / Fold change /veh RASL12 (11751679_a_at) / RFU CDKN2B (11736163_a_at) / Fold change /veh CDKN2B (11736163_a_at) / RFU PRF1 (11729649_at) / Fold change /veh PRF1 (11729649_at) / RFU, ZNF638 /// ZNF638-IT1 / Fold change vs veh, ZNF638 /// ZNF638-IT1 / RFU, PANK3 / Fold change vs veh, PANK3 / RFU, SH3YL1 / Fold change vs veh, SH3YL1 / RFU, ZEB2 / Fold change vs veh, ZEB2 / RFU, NRIP1 / Fold change vs veh, NRIP1 / RFU, PTTG1IP / Fold change vs veh, PTTG1IP / RFU, CAPN2 / Fold change vs veh, CAPN2 / RFU, MED14 / Fold change vs veh, MED14 / RFU, SNORA58 / Fold change vs veh, SNORA58 / RFU, C1orf63 / Fold change vs veh, C1orf63 / RFU, LRRFIP1 / Fold change vs veh, LRRFIP1 / RFU, NDUFAF7 / Fold change vs veh, NDUFAF7 / RFU, SLC12A2 / Fold change vs veh, SLC12A2 / RFU, IBTK / Fold change vs veh, IBTK / RFU, ESF1 / Fold change vs veh, ESF1 / Fold change vs veh, TMEM50B / RFU, TAOK1 / Fold change vs veh, TAOK1 / RFU, ACBD3 / Fold change vs veh, ACBD3 / RFU, TMA16 / Fold change vs veh, TMA16 / RFU, RWDD3 / Fold change vs veh, RWDD3 / RFU, BCAT1 / Fold change vs veh, BCAT1 / RFU, EDEM3 / Fold change vs veh, EDEM3 / RFU, TMEM33 / Fold change vs veh, TMEM33 / RFU, WDR75 / Fold change vs veh, WDR75 / RFU, AHCTF1 / Fold change vs veh, AHCTF1 / RFU, TFRC / Fold change vs veh, TFRC / RFU, ZDHHC17 / Fold change vs veh, ZDHHC17 / RFU, NOM1 / Fold change vs veh, NOM1 / RFU, ARL8B / Fold change vs veh, ARL8B / RFU, ZBTB11 / Fold change vs veh, ZBTB11 / RFU, TAMM41 / Fold change vs veh, TAMM41 / RFU, KIAA1704 /// LOC100996395 / Fold change vs veh, KIAA1704 /// LOC100996395 / RFU, ING1 / Fold change vs veh, ING1 / RFU, TRMT61B / Fold change vs veh, TRMT61B / RFU, FUBP3 / Fold change vs veh, FUBP3 / RFU, TP53 / Fold change vs veh, TP53 / RFU, TNKS2 / Fold change vs veh, TNKS2 / RFU, ZFP14 / Fold change vs veh, ZFP14 / RFU, ACTR2 / Fold change vs veh, ACTR2 / RFU, PPP3R1 / Fold change vs veh, PPP3R1 / RFU, PIK3R1 / Fold change vs veh, PIK3R1 / RFU, HNRNPA1 / Fold change vs veh, HNRNPA1 / RFU, RNF170 / Fold change vs veh, RNF170 / RFU, ZNF28 / Fold change vs veh, ZNF28 / RFU, RNGTT / Fold change vs veh, RNGTT / RFU, OGT / Fold change vs veh, OGT / RFU, BRD1 / Fold change vs veh, BRD1 / RFU, MARS / Fold change vs veh, MARS / RFU, ZNF655 / Fold change vs veh, ZNF655 / RFU, FAHD1 / Fold change vs veh, FAHD1 / RFU, BDP1 / Fold change vs veh, BDP1 / RFU, LRRCC1 / Fold change vs veh, LRRCC1 / RFU, ARID1A / Fold change vs veh, ARID1A / RFU, ZNF146 / Fold change vs veh, ZNF146 / RFU, ZNF330 / Fold change vs veh, ZNF330 / RFU, GPN3 / Fold change vs veh, GPN3 / RFU, C9orf123 / Fold change vs veh, C9orf123 / RFU, N4BP2L2 / Fold change vs veh, N4BP2L2 / RFU, ARFIP1 / Fold change vs veh, ARFIP1 / RFU, FAM179B / Fold change vs veh, FAM179B / RFU, BCL10 / Fold change vs veh, BCL10 / RFU, UHRF1BP1L / Fold change vs veh, UHRF1BP1L / RFU, BET1 / Fold change vs veh, BET1 / RFU, CNOT2 / Fold change vs veh, CNOT2 / RFU, ZNF268 / Fold change vs veh, ZNF268 / Fold change vs veh, ZNF507 / RFU, DGCR2 / Fold change vs veh, DGCR2 / RFU, WDSUB1 / Fold change vs veh, WDSUB1 / Fold change vs veh, HSP90B1 /// MIR3652 / RFU, ADSS / Fold change vs veh, ADSS / RFU, GK / Fold change vs veh, GK / RFU, ZNF148 / Fold change vs veh, ZNF148 / RFU, TAF9 / Fold change vs veh, TAF9 / RFU, SLC1A5 / Fold change vs veh, SLC1A5 / RFU, SLMO2 / Fold change vs veh, SLMO2 / RFU, ABCC4 / Fold change vs veh, ABCC4 / RFU, LOC101060439 /// RAP1B / Fold change vs veh, LOC101060439 /// RAP1B / RFU, RFX7 / Fold change vs veh, RFX7 / RFU, GTPBP10 / Fold change vs veh, GTPBP10 / RFU, CNEP1R1 / Fold change vs veh, CNEP1R1 / RFU, BIVM-ERCC5 /// ERCC5 / Fold change vs veh, BIVM-ERCC5 /// ERCC5 / RFU, ILF3 / Fold change vs veh, ILF3 / RFU 11762660_at / Fold change /veh 11762660_at / RFU VCAN (11757783_s_at) / Fold change /veh VCAN (11757783_s_at) / RFU DDX43 (11728927_at) / Fold change /veh DDX43 (11728927_at) / RFU KRT8 (11758188_x_at) / Fold change /veh KRT8 (11758188_x_at) / RFU NKD1 (11759106_at) / Fold change /veh NKD1 (11759106_at) / RFU SRD5A1 (11742802_a_at) / Fold change /veh SRD5A1 (11742802_a_at) / RFU TPSAB1 /// TPSB2 (11721975_s_at) / Fold change /veh TPSAB1 /// TPSB2 (11721975_s_at) / RFU GSTM3 (11746129_a_at) / Fold change /veh GSTM3 (11746129_a_at) / RFU IL23R (11737362_x_at) / Fold change /veh IL23R (11737362_x_at) / RFU TMEM51 (11727254_a_at) / Fold change /veh TMEM51 (11727254_a_at) / RFU PIWIL2 (11732686_x_at) / Fold change /veh PIWIL2 (11732686_x_at) / RFU ORM1 (11744905_x_at) / Fold change /veh ORM1 (11744905_x_at) / RFU CCDC152 (11743942_at) / Fold change /veh CCDC152 (11743942_at) / RFU ECM1 (11717891_a_at) / Fold change /veh ECM1 (11717891_a_at) / RFU IL23R (11748794_a_at) / Fold change /veh IL23R (11748794_a_at) / RFU TNFAIP8L3 (11732012_x_at) / Fold change /veh TNFAIP8L3 (11732012_x_at) / RFU MBOAT4 (11741988_at) / Fold change /veh MBOAT4 (11741988_at) / RFU 11764193_at / Fold change /veh 11764193_at / RFU TMEM53 (11763286_at) / Fold change /veh TMEM53 (11763286_at) / RFU MAGEB2 (11727129_at) / Fold change /veh MAGEB2 (11727129_at) / RFU TMEM200A (11744735_a_at) / Fold change /veh TMEM200A (11744735_a_at) / RFU CCDC152 (11751479_a_at) / Fold change /veh CCDC152 (11751479_a_at) / RFU FAM211A (11726209_a_at) / Fold change /veh FAM211A (11726209_a_at) / RFU RGS16 (11746705_a_at) / Fold change /veh RGS16 (11746705_a_at) / RFU VCAN (11755009_s_at) / Fold change /veh VCAN (11755009_s_at) / RFU RHOB (11743442_s_at) / Fold change /veh RHOB (11743442_s_at) / RFU RGS16 (11720943_a_at) / Fold change /veh RGS16 (11720943_a_at) / RFU RGS16 (11720944_at) / Fold change /veh RGS16 (11720944_at) / RFU, VPS4B / Fold change vs veh, VPS4B / RFU, CREB1 / Fold change vs veh, CREB1 / RFU, DNAJC13 / Fold change vs veh, DNAJC13 / RFU, GNAQ / Fold change vs veh, GNAQ / RFU, CDK5R1 / Fold change vs veh, CDK5R1 / RFU, ZRANB3 / Fold change vs veh, ZRANB3 / RFU, CUL4A / Fold change vs veh, CUL4A / RFU, CCNY / Fold change vs veh, CCNY / RFU, UFL1 / Fold change vs veh, UFL1 / RFU, COG3 / Fold change vs veh, COG3 / RFU, DIAPH2 / Fold change vs veh, DIAPH2 / RFU, SKA2 / Fold change vs veh, SKA2 / RFU, AFF3 / Fold change vs veh, AFF3 / RFU, LMF1 / Fold change vs veh, LMF1 / RFU, IPO11 / Fold change vs veh, IPO11 / RFU, DFFB / Fold change vs veh, DFFB / RFU, FOXP1 / Fold change vs veh, FOXP1 / RFU, CARD8 / Fold change vs veh, CARD8 / RFU, STRN3 / Fold change vs veh, STRN3 / RFU, ADK / Fold change vs veh, ADK / RFU, RASSF2 / Fold change vs veh, RASSF2 / RFU, WIPF1 / Fold change vs veh, WIPF1 / RFU, LARP1B / Fold change vs veh, LARP1B / RFU, RASA1 / Fold change vs veh, RASA1 / RFU, RB1 / Fold change vs veh, RB1 / RFU, PPFIA1 / Fold change vs veh, PPFIA1 / RFU, MAT2A / Fold change vs veh, MAT2A / RFU, CCT5 / Fold change vs veh, CCT5 / RFU, WDR92 / Fold change vs veh, WDR92 / RFU, CUX1 / Fold change vs veh, CUX1 / RFU, TTC7A / Fold change vs veh, TTC7A / RFU, TMEM135 / Fold change vs veh, TMEM135 / RFU, DEPTOR / Fold change vs veh, DEPTOR / RFU, CPM / Fold change vs veh, CPM / RFU, DNAJB6 / Fold change vs veh, DNAJB6 / RFU, CACNA2D3 / Fold change vs veh, CACNA2D3 / RFU, DTX4 / Fold change vs veh, DTX4 / RFU, TFCP2 / Fold change vs veh, TFCP2 / RFU, GMCL1 /// GMCL1P1 / Fold change vs veh, GMCL1 /// GMCL1P1 / RFU, AEBP2 / Fold change vs veh, AEBP2 / RFU, SNHG1 /// SNORD22 /// SNORD25 /// SNORD26 /// SNORD27 /// SNORD28 /// SNORD29 /// SNORD31 / Fold change vs veh, SNHG1 /// SNORD22 /// SNORD25 /// SNORD26 /// SNORD27 /// SNORD28 /// SNORD29 /// SNORD31 / Fold change (Aza/veh), C12orf56 (ProbeSet 11735607_a_at) / Fold change (ACY-1035/veh), C12orf56 (ProbeSet 11735607_a_at) / Fold change (Aza/veh), FGFR1OP (ProbeSet 11751329_s_at) / Fold change (ACY-1035/veh), FGFR1OP (ProbeSet 11751329_s_at) / Fold change (Aza/veh), VPS36 (ProbeSet 11739960_a_at) / Fold change (ACY-1035/veh), VPS36 (ProbeSet 11739960_a_at) / RFU SYPL1 (11715823_x_at) / Fold change /veh SYPL1 (11715823_x_at) / RFU IGFBP7 (11715501_s_at) / Fold change /veh IGFBP7 (11715501_s_at) / RFU REEP3 (11722064_at) / Fold change /veh REEP3 (11722064_at) / RFU IGLL1 (11728026_x_at) / Fold change /veh IGLL1 (11728026_x_at): dose or concentration left out as unconfirmed
Conditions: MV-4-11 cells, 48 hours

**Q.** How did the “RFU TMEM136 (11760407_x_at)” value turn out when `Nc1ncn([C@@H]2O[C@H](CO)[C@@H](O)[C@H]2O)c(=O)n1` [azacitidine] was run?
**A.** The value was 16.07 RFU.

Reference: publication PMC5218480 (PLoS ONE, 2017)
